Results: patent US9532961B2, “Method and kit for administering γ-glutamyl-D-cysteine for the prevention of reperfusion injury following ischemic stroke” (Rosalind Franklin University of Medicine and Science, priority 2005, dated 2017)
Entries after “also recorded” stand apart in the source; their conditions may differ.

Columns and labels:
[1] = tested on: cultured bovine blood-brain barrier endothelial cells; test: Intracellular calcium (Fluo-4 fluorescence) in cultured blood-brain barrier cells under simulated ischemia-reperfusion; format: cell-based; conditions: 20 μM KB-R7943 (reverse Na/Ca exchange inhibition), methanesulphonate
Protocol: FIG. 4 is a bar graph of data showing that when cerebral capillary endothelial cells are exposed to ischemic conditions, intracellular calcium concentration increases and remains elevated during reperfusion; the elevation in intracellular calcium is prevented by pharmacological inhibition of the Na/H antiporter. Cultured bovine blood-brain barrier cells were treated as described above (FIG. 2). […] The rise in intracellular calcium observed during reperfusion was prevented by inhibiting Na/H antiport (100 μM DMA). *P<0.05 compared to control. +P<0.05 compared to reperfusion. Values are mean±SD. Intracellular calcium was measured with fluorescent imaging, using Fluo-4.
FIG. 5 is a bar graph of data showing that when cerebral capillary endothelial cells are exposed to ischemic conditions, intracellular calcium concentration increases and remains elevated during reperfusion; the elevation in intracellular calcium is prevented by pharmacological inhibition of reverse movement of the Na/Ca exchanger. Cultured bovine blood-brain barrier cells were treated as described above (FIG. 2). […] The rise in intracellular calcium observed during reperfusion was prevented by inhibiting reverse movement of Na/Ca exchange (20 μM KB-R7943). *P<0.05 compared to control. +P<0.05 compared to reperfusion. Values are mean±SD. Intracellular calcium was measured with fluorescent imaging, using Fluo-4. […]

Na/Ca exchange = target: T1, Na/Ca exchange (Homo sapiens, UniProt P32418); conditions: cardiac and renal tissues (ref. 26); cited from earlier work
T1 construct: host or cells: cardiac and renal tissues (as cited)

heart and kidney = heart and kidney (refs. 29, 45); cited from earlier work

CS(=O)(=O)O.N=C(N)SCCc1ccc(OCc2ccc([N+](=O)[O-])cc2)cc1 [KB-R7943, 2-[2-[4-(4-nitrobenzyloxy)phenyl]ethyl]isothiourea methanesulphonate]
rise in intracellular calcium observed during reperfusion [1]: prevented; also recorded: inhibits the rise in intracellular calcium | direction selectivity of Na/Ca exchange inhibition (Na/Ca exchange): greater affinity for suppressing movement in the reverse direction | effect on Na/Ca exchange (Na/Ca exchange): inhibits Na/Ca exchange | cytoprotection under conditions of ischemia and reperfusion (heart and kidney): cytoprotective
